{
  "source": "patent US20260083708A1",
  "about": "“IL-17 MODULATORS AND USES THEREOF” (NNOCARE PHARMA INC., priority 2024, published 2026)",
  "key": {"IL-17AA and IL-17RA": {"target": "T1, IL-17AA and IL-17RA (Homo sapiens, UniProt Q16552)", "T1 construct": "purchased Sino Biological 12047-H07B (IL-17AA); 10895-H02H (IL-17RA)", "T1 sequence (Q16552 24-155)": "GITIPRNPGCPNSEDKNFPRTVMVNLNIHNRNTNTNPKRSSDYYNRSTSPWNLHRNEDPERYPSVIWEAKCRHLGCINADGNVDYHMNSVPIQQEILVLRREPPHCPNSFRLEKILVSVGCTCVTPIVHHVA", "assay": "Competitive inhibition of human IL-17AA and IL-17RA binding (HTRF)", "conditions": "recombinant IL-17AA (His-tag) and IL-17RA (hFc-tag); read-out: IC50 for Inhibiting IL-AA/IL-RA Binding", "summary_of_the_method": "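His-IL-17AA (1 nM) premixed 1 h with anti-His-Tb (0.4 nM), and Fc-IL-17RA (1 nM) with anti-IgG-d2 (1 μg/mL); these are pre-mix levels. Compounds, diluted from 10 μM, preincubated 2 h RT with IL-17AA mix; IL-17RA mix then added, 20 min. 665/615 ratio vs no-compound and no-IL-17AA controls; IC50 by 4-parameter fit.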"}, "[1]": {"test_system": "IL-17AF-induced IL-17 signaling pathway", "assay": "Inhibition of IL-17AF-induced IL-17 signaling pathway", "format": "cell-based", "conditions": "Homo sapiens; IL-17AF used instead of IL-17AA; read-out: IC50 for Inhibiting IL-AF Signaling", "summary_of_the_method": "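HEK293-derived HEK-Blue IL-17 cells (IL-17RA/RC, ACT1, NF-κB/AP-1-driven SEAP) preincubated 1 hour at 37° C with serially diluted compound from 10 μM, then stimulated with IL-17AF for 20 hours. SEAP read colorimetrically at 620 nm; IC50 from 4-parameter fit of % inhibition.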"}, "[2]": {"test_system": "IL-17AA-induced IL-17 signaling pathway", "assay": "Inhibition of IL-17AA-induced IL-17 signaling pathway in HEK-Blue IL-17 reporter cells (SEAP)", "format": "cell-based", "conditions": "Homo sapiens; HEK-Blue IL-17 cells, IL-17AA 2.5 ng/mL, 20 hours; read-out: IC50 for Inhibiting IL-AA Signaling", "summary_of_the_method": "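HEK-Blue IL-17 cells (HEK293 expressing human IL-17RA/RC, ACT1 and NF-κB/AP-1-driven SEAP), 10,000/well, pre-incubated with compound (serial dilution from 10 μM) for 1 h at 37 °C, then stimulated with IL-17AA at 2.5 ng/mL final for 20 h. SEAP in supernatant read with Quanti-Blue at 620 nm; IC50 by 4-parameter fit.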"}},
  "data": [
    {"smiles": "CCn1nccc1C(=O)N[C@H](C(=O)Nc1ccc([C@H](C)[C@@H](NC(=O)COC)c2ncnn2CC2CC2)cc1OC)C(C1CC1)C1CC1", "note": "[Compound 45, N-((S)-1,1-dicyclopropyl-3-((4-((1R,2S)-1-(1-(cyclopropylmethyl)-1H-1,2,4-triazol-5-yl)-1-(2-methoxyacetamido)propan-2-yl)-2-methoxyphenyl)amino)-3-oxopropan-2-yl)-1-ethyl-1H-pyrazole-5-carboxamide]", "values": [
      {"measurement": "IC50", "setting": "IL-17AA and IL-17RA", "value": 153, "unit": "nM"},
      {"measurement": "IC50", "setting": "[1]", "value": 1210, "unit": "nM"},
      {"measurement": "IC50", "setting": "[2]", "value": 194, "unit": "nM"}
    ]},
    {"smiles": "CCn1nccc1C(=O)N[C@H](C(=O)Nc1ncc([C@H](C)[C@@H](NC(=O)COC)c2ncnn2CC2CC2)cc1F)C(C1CC1)C1CC1", "note": "[Compound 46, N-((S)-1,1-dicyclopropyl-3-((5-((1R,2S)-1-(1-(cyclopropylmethyl)-1H-1,2,4-triazol-5-yl)-1-(2-methoxyacetamido)propan-2-yl)-3-fluoropyridin-2-yl)amino)-3-oxopropan-2-yl)-1-ethyl-1H-pyrazole-5-carboxamide]", "values": [
      {"measurement": "IC50", "setting": "IL-17AA and IL-17RA", "value": 29, "unit": "nM"},
      {"measurement": "IC50", "setting": "[1]", "value": 159, "unit": "nM"},
      {"measurement": "IC50", "setting": "[2]", "value": 124, "unit": "nM"}
    ]},
    {"smiles": "CCn1nccc1C(=O)N[C@H](C(=O)Nc1ccc([C@H](C)[C@@H](NC(=O)COC)c2ncnn2CC2CC2)cn1)C(C1CC1)C1CC1", "note": "[Compound 48, N-((S)-1,1-dicyclopropyl-3-((5-((1R,2S)-1-(1-(cyclopropylmethyl)-1H-1,2,4-triazol-5-yl)-1-(2-methoxyacetamido)propan-2-yl)pyridin-2-yl)amino)-3-oxopropan-2-yl)-1-ethyl-1H-pyrazole-5-carboxamide]", "values": [
      {"measurement": "IC50", "setting": "IL-17AA and IL-17RA", "value": 41, "unit": "nM"},
      {"measurement": "IC50", "setting": "[1]", "value": 202, "unit": "nM"},
      {"measurement": "IC50", "setting": "[2]", "value": 13, "unit": "nM"}
    ]},
    {"smiles": "CCn1nccc1C(=O)N[C@H](C(=O)Nc1ccc([C@H](C)[C@@H](NC(=O)CO)c2ncnn2CC2CC2)cc1F)C(C1CC1)C1CC1", "note": "[Compound 49, N-((S)-1,1-dicyclopropyl-3-((4-((1R,2S)-1-(1-(cyclopropylmethyl)-1H-1,2,4-triazol-5-yl)-1-(2-hydroxyacetamido)propan-2-yl)-2-fluorophenyl)amino)-3-oxopropan-2-yl)-1-ethyl-1H-pyrazole-5-carboxamide]", "values": [
      {"measurement": "IC50", "setting": "IL-17AA and IL-17RA", "value": 28, "unit": "nM"},
      {"measurement": "IC50", "setting": "[1]", "value": 87, "unit": "nM"},
      {"measurement": "IC50", "setting": "[2]", "value": 93, "unit": "nM"}
    ]},
    {"smiles": "CCn1ncnc1C(=O)N[C@H](C(=O)Nc1ccc([C@H](C)[C@@H](NC(=O)COC)c2ncnn2CC2CC2)cc1F)C(C1CC1)C1CC1", "note": "[Compound 50, N-((S)-1,1-dicyclopropyl-3-((4-((1R,2S)-1-(1-(cyclopropylmethyl)-1H-1,2,4-triazol-5-yl)-1-(2-methoxyacetamido)propan-2-yl)-2-fluorophenyl)amino)-3-oxopropan-2-yl)-1-ethyl-1H-1,2,4-triazole-5-carboxamide]", "values": [
      {"measurement": "IC50", "setting": "IL-17AA and IL-17RA", "value": 5.6, "unit": "nM"},
      {"measurement": "IC50", "setting": "[1]", "value": 26, "unit": "nM"},
      {"measurement": "IC50", "setting": "[2]", "value": 7.9, "unit": "nM"}
    ]},
    {"smiles": "CCn1nccc1C(=O)N[C@H](C(=O)Nc1ccc([C@H](C)[C@@H](NC(=O)CN2CCC2)c2ncnn2CC2CC2)cc1F)C(C1CC1)C1CC1", "note": "[Compound 51, N-((S)-1-((4-((1R,2S)-1-(2-(azetidin-1-yl)acetamido)-1-(1-(cyclopropylmethyl)-1H-1,2,4-triazol-5-yl)propan-2-yl)-2-fluorophenyl)amino)-3,3-dicyclopropyl-1-oxopropan-2-yl)-1-ethyl-1H-pyrazole-5-carboxamide]", "values": [
      {"measurement": "IC50", "setting": "IL-17AA and IL-17RA", "value": 50, "unit": "nM"},
      {"measurement": "IC50", "setting": "[1]", "value": 211, "unit": "nM"},
      {"measurement": "IC50", "setting": "[2]", "value": 178, "unit": "nM"}
    ]},
    {"smiles": "CCn1nccc1C(=O)N[C@H](C(=O)Nc1ccc([C@H](C)[C@@H](NC(=O)COC)c2ncnn2CCN2CCN(C)CC2)cc1F)C(C1CC1)C1CC1", "note": "[Compound 52, N-((S)-1,1-dicyclopropyl-3-((2-fluoro-4-((1R,2S)-1-(2-methoxyacetamido)-1-(1-(2-(4-methylpiperazin-1-yl)ethyl)-1H-1,2,4-triazol-5-yl)propan-2-yl)phenyl)amino)-3-oxopropan-2-yl)-1-ethyl-1H-pyrazole-5-carboxamide]", "values": [
      {"measurement": "IC50", "setting": "IL-17AA and IL-17RA", "value": 182, "unit": "nM"},
      {"measurement": "IC50", "setting": "[1]", "value": 2730, "unit": "nM"},
      {"measurement": "IC50", "setting": "[2]", "value": 2220, "unit": "nM"}
    ]},
    {"smiles": "COCC(=O)N[C@@H](c1ncnn1CC1CC1)[C@@H](C)c1ccc(NC(=O)[C@@H](NC(=O)c2ccnn2C)C(C2CC2)C2CC2)c(F)c1", "note": "[Compound 53, N-((S)-1,1-dicyclopropyl-3-((4-((1R,2S)-1-(1-(cyclopropylmethyl)-1H-1,2,4-triazol-5-yl)-1-(2-methoxyacetamido)propan-2-yl)-2-fluorophenyl)amino)-3-oxopropan-2-yl)-1-methyl-1H-pyrazole-5-carboxamide]", "values": [
      {"measurement": "IC50", "setting": "IL-17AA and IL-17RA", "value": 7.4, "unit": "nM"},
      {"measurement": "IC50", "setting": "[1]", "value": 16, "unit": "nM"},
      {"measurement": "IC50", "setting": "[2]", "value": 5.6, "unit": "nM"}
    ]},
    {"smiles": "COCC(=O)N[C@@H](c1nnnn1CC1CC1)[C@@H](C)c1ccc(NC(=O)[C@@H](NC(=O)c2nonc2C)C(C2CC2)C2CC2)c(F)c1", "note": "[Compound 54, N-((S)-1,1-dicyclopropyl-3-((4-((1R,2S)-1-(1-(cyclopropylmethyl)-1H-tetrazol-5-yl)-1-(2-methoxyacetamido)propan-2-yl)-2-fluorophenyl)amino)-3-oxopropan-2-yl)-4-methyl-1,2,5-oxadiazole-3-carboxamide]", "values": [
      {"measurement": "IC50", "setting": "IL-17AA and IL-17RA", "value": 3, "unit": "nM"},
      {"measurement": "IC50", "setting": "[1]", "value": 16, "unit": "nM"},
      {"measurement": "IC50", "setting": "[2]", "value": 3.6, "unit": "nM"}
    ]},
    {"smiles": "Cc1nonc1C(=O)N[C@H](C(=O)Nc1ccc([C@H](C)[C@@H](NC(=O)COC2CNC2)c2ncnn2CC2CC2)cc1F)C(C1CC1)C1CC1", "note": "[Compound 55, N-((S)-1-((4-((1R,2S)-1-(2-(azetidin-3-yloxy)acetamido)-1-(1-(cyclopropylmethyl)-1H-1,2,4-triazol-5-yl)propan-2-yl)-2-fluorophenyl)amino)-3,3-dicyclopropyl-1-oxopropan-2-yl)-4-methyl-1,2,5-oxadiazole-3-carboxamide]", "values": [
      {"measurement": "IC50", "setting": "IL-17AA and IL-17RA", "value": 40, "unit": "nM"},
      {"measurement": "IC50", "setting": "[1]", "value": 210, "unit": "nM"},
      {"measurement": "IC50", "setting": "[2]", "value": 142, "unit": "nM"}
    ]},
    {"smiles": "Cc1nonc1C(=O)N[C@H](C(=O)Nc1ccc([C@H](C)[C@@H](NC(=O)COC2CN(C)C2)c2ncnn2CC2CC2)cc1F)C(C1CC1)C1CC1", "note": "[Compound 56, N-((S)-1,1-dicyclopropyl-3-((4-((1R,2S)-1-(1-(cyclopropylmethyl)-1H-1,2,4-triazol-5-yl)-1-(2-((1-methylazetidin-3-yl)oxy)acetamido)propan-2-yl)-2-fluorophenyl)amino)-3-oxopropan-2-yl)-4-methyl-1,2,5-oxadiazole-3-carboxamide]", "values": [
      {"measurement": "IC50", "setting": "IL-17AA and IL-17RA", "value": 13, "unit": "nM"},
      {"measurement": "IC50", "setting": "[1]", "value": 145, "unit": "nM"},
      {"measurement": "IC50", "setting": "[2]", "value": 78, "unit": "nM"}
    ]},
    {"smiles": "Cc1nonc1C(=O)N[C@H](C(=O)Nc1ccc([C@H](C)[C@@H](NC(=O)CO)c2ncnn2CC2CC2)cc1F)C(C1CC1)C1CC1", "note": "[Compound 57, N-((S)-1,1-dicyclopropyl-3-((4-((1R,2S)-1-(1-(cyclopropylmethyl)-1H-1,2,4-triazol-5-yl)-1-(2-hydroxyacetamido)propan-2-yl)-2-fluorophenyl)amino)-3-oxopropan-2-yl)-4-methyl-1,2,5-oxadiazole-3-carboxamide]", "values": [
      {"measurement": "IC50", "setting": "IL-17AA and IL-17RA", "value": 6.8, "unit": "nM"},
      {"measurement": "IC50", "setting": "[1]", "value": 88, "unit": "nM"},
      {"measurement": "IC50", "setting": "[2]", "value": 95, "unit": "nM"}
    ]},
    {"smiles": "[2H]C([2H])([2H])OCC(=O)N[C@@H](c1ncnn1CC1CC1)[C@@H](C)c1ccc(NC(=O)[C@@H](NC(=O)c2nonc2C)C(C2CC2)C2CC2)c(F)c1", "note": "[Compound 58, N-((S)-1,1-dicyclopropyl-3-((4-((1R,2S)-1-(1-(cyclopropylmethyl)-1H-1,2,4-triazol-5-yl)-1-(2-(methoxy-d3)acetamido)propan-2-yl)-2-fluorophenyl)amino)-3-oxopropan-2-yl)-4-methyl-1,2,5-oxadiazole-3-carboxamide]", "values": [
      {"measurement": "IC50", "setting": "IL-17AA and IL-17RA", "value": 1.4, "unit": "nM"},
      {"measurement": "IC50", "setting": "[1]", "value": 3.8, "unit": "nM"},
      {"measurement": "IC50", "setting": "[2]", "value": 5, "unit": "nM"}
    ]}
  ]
}
